Columns and labels:
[1] = format: physicochemical
Description: For the test, the prepared surfactant solution samples were filled into a clean, dry cuvette and then scattered in a spectrophotometer at 500 nm wavelength using a nephelometric pad at ambient temperature. The turbidity of the sample to be tested is compared to the light scattering of pure water (0%) and the reference opal body (100%).

[2] = Interfacial tension (IFT), spinning drop; format: physicochemical; settings: for IFT (mN/m), concentration 0.1 g/l / IFT (mN/m), concentration 1 g/l / IFT (mN/m), concentration 5 g/l: commercial surfactants; for IFT (mN/m) 0.1 g/l / IFT (mN/m) 1.0 g/l: 40° C., 4500 rpm
Experimental: The interfacial tension (IFT) in the following examples is measured in a spinning drop type tensile meter at 4500 rpm at 40° C. temperature. The test capillary was filled with various concentrations of surfactant solution into which a drop of oil of Algyő type oil was injected through a syringe. In steady state, the interfacial tension between the surfactant solution and the crude oil can be calculated based on the geometric dimensions of the droplet taken by the oil drop.

[3] = Thermal (heat/hydrolytic) stability, 90° C., 3 hours, transmittance; format: physicochemical; settings: for Heat stability (90° C., 3 hours), appearance: appearance symbol; for Heat stability (90° C., 3 hours) (%): turbidity number
[4] = Oil solubility (turbidity of 1% in model oil); format: physicochemical; settings: for Solubility in oil, appearance / dissolution: symbol or word
Experimental: In the course of the test, 0.2 g of the surfactant to be tested is weighed into 20 g of model oil and then dissolved for 1 hour at 60° C. with vigorous stirring. After cooling, the samples were poured into a clean, dry cuvette and then scattered at 500 nm with a spectrophotometer at ambient temperature. As reference, the light scattering of pure oil (0%) and standard opal body (100%) is used.

Row | Compound | Water solubility [1] [%] | Water solubility (%) [1] [%] | Water solubility, appearance [1] | IFT (mN/m), concentration 0.1 g/l [2] [mN/m] | IFT (mN/m), concentration 1 g/l [2] [mN/m] | IFT (mN/m), concentration 5 g/l [2] [mN/m] | Heat stability (90° C., 3 hours), appearance [3] | Heat stability (90° C., 3 hours) (%) [3] [%] | Solubility in oil, appearance / dissolution [4] | IFT (mN/m) 0.1 g/l [2] [mN/m] | IFT (mN/m) 1.0 g/l [2] [mN/m] | Solubility in oil (%) ([4]; turbidity number)
1 | 2-methylpentane-1,5-diammonium-bis(C14-C17 sec-alkylsulphonate) [Example 5] | 100 | 100 | m. | – | – | – | – | – | – | – | – | –
2 | CCCCCCCCCCCCc1ccc(S(=O)(=O)[O-])cc1.[Na+] [DBSNa-salt 30% solution, Sodium salt of dodecylbenzylsulfonic acid, reference compound] | – | – | – | 0.34 | 0.63 | 0.88 | – | – | – | – | – | –
3 | CCCCCCCCCCCCc1ccc(S(=O)(=O)O)cc1.CCCCCCCCCCCCc1ccc(S(=O)(=O)O)cc1.NCCCCCCN [Example 21] | – | 100 | m. | – | – | – | m. | 100 | n.o. | 0.019 | 0.015 | –
4 | CCCCCCCCCCCCc1ccc(S(=O)(=O)O)cc1.CCCCCCCCCCCCc1ccc(S(=O)(=O)O)cc1.NCCCCN [Example 23] | – | 100 | m. | – | – | – | b. | 20 | n.o. | 0.120 | 0.170 | –
5 | CCCCCCCCCCCCc1ccc(S(=O)(=O)O)cc1.CCCCCCCCCCCCc1ccc(S(=O)(=O)O)cc1.NCCCOCCCCOCCCN [Example 24] | – | 100 | m. | – | – | – | op. | 100 | op. | 0.042 | 0.103 | 18
6 | CCCCCCCCCCCCc1ccc(S(=O)(=O)O)cc1.CCCCCCCCCCCCc1ccc(S(=O)(=O)O)cc1.CN(C)CCCNCCCN(C)C.Cl [Example 38] | – | – | – | – | – | – | op. | 31 | – | 0.15 | 0.16 | –
7 | CC(O)CO (stereo not drawn) [Propylene glycol, reference compound] | – | – | – | 11.53 | 16.14 | 15.4 | – | – | – | – | – | –
8 | bis(C14-C17 sec-alkyl)-sulphonate-poly (propylene-glycol)-bis-(2-ammonium-propyl)-ether salt [Example 3] | 4 | – | – | – | – | – | – | – | – | – | – | –
